Assay results from patent US5424185A, “Human high-affinity neurotransmitter uptake system” (Baylor College of Medicine, priority 1990, dated 1995).

The molecules below were run on GABA transporter (L-GAB1 cells) (assay: [3H]GABA uptake by L-GAB1 cells). Conditions: competitor at 100-fold excess relative to [3H]GABA.
Format: cell-based, human
Method: Using concentrations of [^3 H] GABA ranging from 2 to 500 μM, the kinetic profile of GABA uptake was determined for both L-GAB1 and L-M cells. The initial velocity of GABA uptake was measured and plotted against the corresponding [^3 H] GABA concentration for both cell lines. […] The velocity profile for L-GAB1 cells was subtracted by that of L-M cells, and the resulting data used for a double-reciprocal plot of velocity-^1 against GABA concentration-^1. The velocity profile for L-M cells was also transformed into a double-reciprocal plot.
Several known inhibitors of high-affinity GABA uptake were used to examine their efficacies in inhibiting [^3 H] GABA uptake by L-GAB1 cells. […] Each of these agents was used at several concentrations ranging from 1 to 100 μM in assays of [^3 H] GABA uptake by L-GAB1 cells. […] GABA uptake by L-GAB1 cells.
L-GAB1 cells were also analyzed in terms of their ligand-specificity in the high-affinity GABA uptake mechanism.
With `C[C@H](N)C(=O)O` [L-alanine] the “ligand-specificity of [3H]GABA uptake by L-GAB1 cells” value (from here on “ligand-specificity of [3H]GABA uptake”) was “somewhat sensitive”. With `N=C(N)NCCC[C@H](N)C(=O)O` [L-arginine] the “ligand-specificity of [3H]GABA uptake” value was “somewhat sensitive”. In the case of `CNC[C@H](O)c1ccc(O)c(O)c1` [epinephrine], the “ligand-specificity of [3H]GABA uptake” value is reported as “not inhibited”. `NCCCC[C@H](N)C(=O)O` [lysine] was tested, and the “ligand-specificity of [3H]GABA uptake” value was “not sensitive”. In the case of `O=C(O)[C@@H]1CCCN1` [proline], the “ligand-specificity of [3H]GABA uptake” value is reported as “not sensitive”. With `N[C@@H](CO)C(=O)O` [serine] the “ligand-specificity of [3H]GABA uptake” value was “not sensitive”.

Each molecule was assayed on human L-glutamate transporter (L-Glul cells) (assay: L-[3H]glutamate uptake by L-Glul cells). Conditions: unlabelled neurotransmitters, EAA receptor ligands, co-transporter inhibitors.
Format: cell-based
Method: Both L-Glul and L-M cells were assessed for their kinetic properties of [^3 H] Glu uptake, and the results were analyzed by fitting to Michaelis-Menten kinetics. This was done by incubating cells with differing concentrations of [^3 H] Glu (ranging from 0.05 to 2 μM) for 10 minutes, at both 37° C. and 0° C. The amount of [^3 H] Glu retained by the cells following incubation was then quantitated and converted (using the manufacturer's specific activity for [^3 H] Glu to the corresponding picomole-equivalent of the radioligand, for each concentration of radioligand at each temperature. Then, the pmol value is normalized by the length of incubation and the amount of protein corresponding to the number of cells assayed. The resulting value, expressed in units of pmol/min/mg protein, is the initial velocity value for each concentration of [^3 H] Glu at each temperature. The initial velocity measured at 37° C. represents total initial velocity; the initial velocity measured at 0° C. represents nonspecific initial velocity. The difference between these two velocity values is then the specific initial velocity, denoted by "V", for each concentration of [^3 H] Glu.
Various drugs specific for excitatory amino acid (EAA) receptor subtypes were assessed for their effects on [^3 H] Glu uptake by L-Glul cells.
Glu uptake by L-Glul cells.
With `Cc1onc(O)c1CC(N)C(=O)O` [AHMIP, D-amino-3-hydroxy-5-methyl-4-isoxazoneproprionic acid] the “effect on [3H]Glu uptake by L-Glul cells” value was “no inhibitory effect”. With `NC(CCP(=O)(O)O)C(=O)O` (stereo not shown) [AP4, 2-amino-4-phosphonobutyric acid] the “effect on [3H]Glu uptake by L-Glul cells” value was “without effect”. `NC(CCCP(=O)(O)O)C(=O)O` (stereo not shown) [APV, 2-amino-5-phosphonovaleric acid] was tested, and the “effect on [3H]Glu uptake by L-Glul cells” value was “without effect”. `N[C@H](CCS(=O)(=O)O)C(=O)O` [D-homocysteic acid] was tested, and the “effect on [3H]Glu uptake by L-Glul cells” value was “without effect”. In the case of `N[C@H](CCC(=O)NCS(=O)(=O)O)C(=O)O` [GAMS], the “effect on [3H]Glu uptake by L-Glul cells” value is reported as “without effect”. With `CN[C@H](CC(=O)O)C(=O)O` [NMDA, N-methyl-D-aspartic acid] the “effect on [3H]Glu uptake by L-Glul cells” value was “without effect”. In the case of `N[C@@H](CS(=O)(=O)O)C(=O)O` [cysteic acid], the “effect on [3H]Glu uptake by L-Glul cells” value is reported as “only unlabelled L-glutamate seems to mediate some inhibition”. In the case of `NC(CS(=O)O)C(=O)O` (stereo not shown) [cysteine sulfinate], the “effect on [3H]Glu uptake by L-Glul cells” value is reported as “no effect”. In the case of `NCCc1ccc(O)c(O)c1` [dopamine], the “effect on [3H]Glu uptake by L-Glul cells” value is reported as “only unlabelled L-glutamate seems to mediate some inhibition”. `N[C@H](C(=O)O)c1cc(=O)[nH]o1` [ibotenic acid] was tested, and the “effect on [3H]Glu uptake by L-Glul cells” value was “without effect”. With `C=C(C)[C@H]1CN[C@H](C(=O)O)[C@H]1CC(=O)O` [kainic acid] the “effect on [3H]Glu uptake by L-Glul cells” value was “without effect”. `N[C@@H](Cn1oc(=O)[nH]c1=O)C(=O)O` [quisqualate] was tested, and the “effect on [3H]Glu uptake by L-Glul cells” value was “potent inhibitor”. In the case of `NCCS(=O)(=O)O` [taurine], the “effect on [3H]Glu uptake by L-Glul cells” value is reported as “only unlabelled L-glutamate seems to mediate some inhibition”. In the case of methyl-glutamylphosphonic acid [MGPA], the “effect on [3H]Glu uptake by L-Glul cells” value is reported as “without effect”.

What follows are molecules tested on aspartate/glutamate co-transport system (L-Aspl cells) (assay: D-[3H]aspartate uptake by L-Aspl cells). Conditions: not given.
Format: cell-based, human
Method: Kinetic analyses of D-[^3 H] […] Asp. […] Asp uptake.
The specificity of the high-affinity transport mechanism in L-Aspl cells also was examined. […] Asp.
The high-affinity transport system in L-Aspl cells was also analyzed in terms of its relative sensitivity to compounds specific for various subtypes of excitatory amino acid (EAA) receptors.
A series of known inhibitors of high-affinity D-Asp uptake systems (including L-cysteic acid (L-CA), L-cysteine sulfinic acid (L-CSA), aminophosphonoproprionic acid (APPA) and D-threoaspartic acid (THAA)) were also tested for their effects on D-[^3 H] Asp uptake by L-Aspl cells.
In the case of `NC(CCCC(=O)O)C(=O)O` (stereo not shown) [AAA, a-aminoadipic acid], the “effect on D-[3H]Asp uptake by L-Aspl cells” value (shortened to “effect on D-[3H]Asp uptake”) is reported as “virtually without inhibitory effect”. `NC(CP(=O)(O)O)C(=O)O` (stereo not shown) [APPA, aminophosphonoproprionic acid] was tested, and the “effect on D-[3H]Asp uptake” value was “moderate in inhibitory potency”. `CCOC(=O)CC[C@H](N)C(=O)OCC` [DEEG, glutamate diethylester] was tested, and the “effect on D-[3H]Asp uptake” value was “without effect”. With `N[C@@H](CS(=O)(=O)O)C(=O)O` [L-CA, L-cysteic acid] the “effect on D-[3H]Asp uptake” value was “potent inhibitory effects”. `N[C@@H](CS(=O)O)C(=O)O` [L-CSA, L-cysteine sulfinic acid] was tested, and the “effect on D-[3H]Asp uptake” value was “potent inhibitory effects”. In the case of `N[C@@H](CS)C(=O)O` [L-cysteine], the “effect on D-[3H]Asp uptake” value is reported as “slight and not statistically significant”. `NC(=O)CC[C@H](N)C(=O)O` [L-glutamine] was tested, and the “effect on D-[3H]Asp uptake” value was “slight and not statistically significant”. For `N[C@@H](CCS(=O)(=O)O)C(=O)O` [LHCA, L-homocysteic acid], the “effect on D-[3H]Asp uptake” value was “without effect”. In the case of `CN[C@H](CC(=O)O)C(=O)O` [NMDA, N-methyl-D-aspartic acid], the “effect on D-[3H]Asp uptake” value is reported as “without effect”. In the case of `N[C@@H](C(=O)O)[C@@H](O)C(=O)O` [THAA, D-threoaspartic acid], the “effect on D-[3H]Asp uptake” value is reported as “potent inhibitory effects”. In the case of `C=C(C)[C@H]1CN[C@H](C(=O)O)[C@H]1CC(=O)O` [kainic acid], the “effect on D-[3H]Asp uptake” value is reported as “significant inhibition”. For `N[C@@H](Cn1oc(=O)[nH]c1=O)C(=O)O` [quisqualate], the “effect on D-[3H]Asp uptake” value was “without effect”. With `NCCS(=O)(=O)O` [taurine] the “effect on D-[3H]Asp uptake” value was “slight and not statistically significant”. dihydroxykainate was tested, and the “effect on D-[3H]Asp uptake” value was “significant inhibition”.
